System: ZS2/SMS2 cells
Experiment: Me beta CD sensitivity test with Myriocin, viable cell number by WST-8
Type: cell-based, mouse
Conditions: for effect of added lipid on cell growth inhibitory effects caused by Myriocin: Myriocin + ceramide (10 microM) or sphingomyelin (15 microM)
Protocol: 1×10^6 MEF cells are washed, and resuspended in 1 ml of serum-free RPMI 1640 medium, and treated with an appropriate concentration of Me beta CD, and cultured in 5% CO2, 37 degrees Celsius for five minutes. After 2 ml of normal medium containing myriocin are added thereto, and the cells are cultured for additional 12 hours. A reagent for measuring viable cell number containing WST-8 (Nakalai Tesque) may be used to measure survival rate of the cells.
More specifically, ZS2/SMS2 cells prepared in Example 2 are placed in 48-well plate dish at 5000 cells/0.2 ml/well (N=3). For cell culture, 0.3% FCS/OPTIPRO SFM (GIBCO) was used. In this case, Myriocin (Final concentration 5 microM) is added, or alternatively, Myriocin+ceramide (10 microM) or Myriocin+sphingomyelin (15 microM) were added thereto. Me beta CD was added at the final concentration of 2 mM, and further cultured in 5% CO2, 37 degrees Celsius for sixteen hours. A reagent for measuring viable cell number containing WST-8 (DOJINDO) was added at 10 microliter/well and further cultured in 5% CO2, 37 degrees Celsius for one hour (WST assay). The viable cell numbers were counted according to the protocol. Y axis represents a numerical value when the average value is deemed to be 100% amongst the cases in the presence and absence of Myriocin, when Me beta CD is not placed therein.

In the case of `CCCCCCC(=O)CCCCCC/C=C/C[C@@H](O)[C@H](O)[C@@](N)(CO)C(=O)O` [Myriocin], the “further reduction of cell growth by addition of Myriocin” value (2 mM Me beta CD, sixteen hours, Myriocin printed as 2 mM) is reported as “about 20%” and the “viable cell number, presence versus absence of Myriocin” value (Me beta CD not placed therein, Myriocin 5 microM) is reported as “not significant difference”.
In the case of ceramide, the “effect of added lipid on cell growth inhibitory effects caused by Myriocin” value (2 mM Me beta CD) is reported as “almost completely inhibited the cell growth inhibitory effects caused by Myriocin”.
In the case of methyl-beta-cyclodextrin [Me beta CD], the “reduction of cell growth by Me beta CD” value (2 mM Me beta CD, sixteen hours, no Myriocin) is reported as “about 50%”.
With sphingomyelin [SM] the “effect of added lipid on cell growth inhibitory effects caused by Myriocin” value (2 mM Me beta CD) was “almost completely inhibited the cell growth inhibitory effects caused by Myriocin”.
